According to patent publication US10195156B2, “Compounds and compositions for intracellular delivery of agents” (ModernaTX, Inc., priority 2015, dated 2019):

Assays:
[1] = Particle size and polydispersity index of nanoparticle compositions (Zetasizer Nano ZS); assay type: physicochemical; details: for particle size, rank within the named table (in words): comparison amongst compositions
Protocol: A Zetasizer Nano ZS (Malvern Instruments Ltd, Malvern, Worcestershire, UK) can be used to determine the particle size, the polydispersity index (PDI) and the zeta potential of the nanoparticle compositions in 1×PBS in determining particle size and 15 mM PBS in determining zeta potential.

[2] = pKa of nanoparticle compositions; assay type: physicochemical
[3] = tested on: luciferase (Luc) mRNA expression; assay: Expression of Luc induced by sample formulations, whole-body bioluminescence after intravenous administration; assay type: in vivo; details: mice, i.v., 0.5 mg/kg
Protocol: In order to monitor how effectively various nanoparticle compositions deliver therapeutic and/or prophylactic agents to targeted cells, different nanoparticle compositions including a particular therapeutic and/or prophylactic agent (for example, a modified or naturally occurring RNA such as an mRNA) are prepared and administered to rodent populations. Mice are intravenously, intramuscularly, intraarterially, or intratumorally administered a single dose including a nanoparticle composition with a formulation such as those provided in Table 1. In some instances, mice may be made to inhale doses. Dose sizes may range from 0.001 mg/kg to 10 mg/kg, where 10 mg/kg describes a dose including 10 mg of a therapeutic and/or prophylactic agent in a nanoparticle composition for each 1 kg of body mass of the mouse. A control composition including PBS may also be employed.
Upon administration of nanoparticle compositions to mice, dose delivery profiles, dose responses, and toxicity of particular formulations and doses thereof can be measured by enzyme-linked immunosorbent assays (ELISA), bioluminescent imaging, or other methods. For nanoparticle compositions including mRNA, time courses of protein expression can also be evaluated. Samples collected from the rodents for evaluation may include blood, sera, and tissue (for example, muscle tissue from the site of an intramuscular injection and internal tissue); sample collection may involve sacrifice of the animals.
The efficacy of the nanoparticle compositions presented in Tables 1, 1a, 17-1, 19-1, 20-1 and 21-1 was evaluated with a bioluminescence study. Formulations were administered intravenously to mice (n=6) at a dosage of 0.5 mg/kg (mpk) and bioluminescence measured at 3, 6, and 24 hour time points. The standard MC3 formulation and a PBS control were evaluated for comparison.

IL-6 = assay: Cytokine production induced by sample formulations: IL-6; assay type: in vivo; details: mice, i.v., 0.5 mpk, 6 hours; for IL-6: in pg/mL (unit assumed)
Text: (§1) The introduction of foreign material into a mammalian body induces an innate immune response that promotes cytokine production. Such immune responses to, for example, nanoparticle compositions including therapeutic and/or prophylactic agents, are undesirable. The induction of certain cytokines is thus measured to evaluate the […] of nanoparticle compositions. The concentrations of various cytokines in mice upon intravenous administration of nanoparticle compositions presented in Tables 1, 1a, 17-1, 19-1, 20-1 and 21-1 at a dosage of 0.5 mpk was measured at 6 hours. The standard MC3 formulation and a PBS control were also tested.

IP-10 = assay: Cytokine production induced by sample formulations: IP-10; assay type: in vivo; details: mice, i.v., 0.5 mpk, 6 hours; for IP-10: in pg/mL (unit assumed)
Text: as §1

[4] = Encapsulation efficiency of RNA (QUANT-IT RIBOGREEN RNA assay); assay type: physicochemical
Protocol: For nanoparticle compositions including an RNA, a QUANT-IT™ RIBOGREEN® RNA assay (Invitrogen Corporation Carlsbad, Calif.) can be used to evaluate the encapsulation of an RNA by the nanoparticle composition. The samples are diluted to a concentration of approximately 5 μg/mL in a TE buffer solution (10 mM Tris-HCl, 1 mM EDTA, pH 7.5). 50 μL of the diluted samples are transferred to a polystyrene 96 well plate and either 50 μL of TE buffer or 50 μL of a 2% Triton X-100 solution is added to the wells. The plate is incubated at a temperature of 37° C. for 15 minutes. The RIBOGREEN® reagent is diluted 1:100 in TE buffer, and 100 μL of this solution is added to each well. The fluorescence intensity can be measured using a fluorescence plate reader (Wallac Victor 1420 Multilablel Counter; Perkin Elmer, Waltham, Mass.) at an excitation wavelength of, for example, about 480 nm and an emission wavelength of, for example, about 520 nm. The fluorescence values of the reagent blank are subtracted from that of each of the samples and the percentage of free RNA is determined by dividing the fluorescence intensity of the intact sample (without addition of Triton X-100) by the fluorescence value of the disrupted sample (caused by the addition of Triton X-100).

[5] = tested on: modified luciferase expression; assay: Expression of Luc in different organs (liver, lung, spleen, femur) 6 hours after intravenous administration; assay type: in vivo; details: i.v., 0.5 mpk
Protocol: The efficacy of the nanoparticle compositions presented in Tables 1, 1a, 17-1, 19-1, 20-1 and 21-1 was further evaluated by measuring the expression of modified luciferase in the liver, lung, spleen, and femur upon administration of a given composition. Formulations were administered intravenously to mice (n=3) at a dosage of 0.5 mpk and bioluminescence measured after 6 hours. The standard MC3 formulation and a PBS control were also tested.

[6] = Table 1, rows without footnote mark
[7] = Table 1, rows without footnote mark (lipid:DOPE:cholesterol:PEG-DMG 40:20:38.5:1.5, Luc mRNA; MC3 standard formulation)
[8] = Table 20-1, rows without footnote mark
[9] = Table 1, * lipid:DSPC:Chol:PEG-DMG 50:10:38.5:1.5

SMILES	IL-6 (IL-6; Table 4)	IP-10 (IP-10; Table 4)	IP-10 induction, rank or comparison with IL-6 (in words) (IP-10)	PDI [1, 8]	Size (nm) [1, 8] [nm]	pKa [2, 8]	IL-6 (IL-6; Table 20-4, formula (20-I))	IP-10 (IP-10; Table 20-4, formula (20-I))	EE (%) [4, 8] [%]	Total Flux 3 hours ([3]; Table 2)	Total Flux 6 hours ([3]; Table 2)	Total Flux 24 hours ([3]; Table 2)	Total Flux Liver ([5]; Table 3, mice)	Total Flux Lung ([5]; Table 3, mice)	Total Flux Spleen ([5]; Table 3, mice, spleen)	Total Flux 3 hours ([3]; Table 20-2)	Total Flux 6 hours ([3]; Table 20-2)	Total Flux 24 hours ([3]; Table 20-2)	Total Flux Liver ([5]; Table 20-3, mice)	Total Flux Lung ([5]; Table 20-3, mice)	also measured
CCCCCCCCCCCCCCN(CCCCCCCCCCCCCC)CCN(CCCCCCCCCCCCCC)CCN1CCN(CCN(CCCCCCCCCCCC)CCCCCCCCCCCC)CC1 [Compound 31, N^1-(2-(4-(2-(Didodecylamino)ethyl)piperazin-1-yl)ethyl)-N^1,N^2,N^2-tritetradecylethane-1,2-diamine]	188	2513	–	–	–	–	–	–	–	1.43E+10	1.42E+10	3.07E+08	1.54E+09	9.81E+06	1.28E+07	–	–	–	–	–	PDI [1, 6]: 0.130; Size (nm) [1, 7]: 87.9 nm; pKa [2, 6]: 6.31; EE (%) [4, 6]: 77.5%; Total Flux Femur ([5]; Table 3, mice): 9.89E+05
CCCCCCCCCCCCCCN(CCCCCCCCCCCCCC)CCN(CCCCCCCCCCCCCC)CCN1CCN(CCN(CCCCCCCCCCCC)CCCCCC(=O)OCCCCC)CC1 [Compound 13, Pentyl 6-((2-(4-(2-((2-(ditetradecylamino)ethyl)(tetradecyl)amino)ethyl)piperazin-1-yl)ethyl)(dodecyl)amino)hexanoate]	301	7266	highest expression	–	–	–	–	–	–	3.59E+09	3.80E+09	3.11E+08	6.10E+08	2.89E+06	3.63E+07	–	–	–	–	–	PDI [1, 6]: 0.080; Size (nm) [1, 7]: 97.7 nm; pKa [2, 6]: 6.30; IL-6 induction, rank within the named table (in words) (IL-6): highest expression; EE (%) [4, 6]: 64.2%; Total Flux Femur ([5]; Table 3, mice): 1.99E+06
CCCCC/C=C\C/C=C\CCCCCCCCN(CCO)CCCCCCCCCCCC [Compound 17-4, 2-(Dodecyl((9Z,12Z)-octadeca-9,12-dien-1-yl)amino)ethan-1-ol]	–	–	highest IL-6 and IP-10 levels	–	–	–	–	–	–	–	–	–	–	–	–	–	–	–	–	–	PDI ([1]; Table 17-1): 0.154; Size (nm) ([1]; Table 17-1): 95.6 nm; pKa ([2]; Table 17-1): 6.34; Total Flux 3 hours ([3]; Table 17-2): 1.22E+09; Total Flux 6 hours ([3]; Table 17-2): 3.60E+08; Total Flux 24 hours ([3]; Table 17-2): 6.05E+07; total flux / Luc expression, rank within the named table (in words) ([3]; each time point): substantially higher flux than compositions including Compounds 17-2, 17-3, and 17-7; IL-6 (IL-6; Table 17-4): 80.7; IL-6 induction, rank within the named table (in words) (IL-6): highest IL-6 and IP-10 levels; IP-10 (IP-10; Table 17-4): 560; EE (%) ([4]; Table 17-1): 94.5%; Total Flux Liver ([5]; Table 17-3, mice): 8.00E+07; Total Flux Lung ([5]; Table 17-3, mice): 1.95E+05; Total Flux Spleen ([5]; Table 17-3, mice, spleen): 2.30E+06; total flux in the spleen, rank within the named table (in words) ([5]; mice, spleen): highest
CCCCC/C=C\C/C=C\CCCCCCCCN(CCCCCCCC/C=C\C/C=C\CCCCC)CCN(CCCCCCCC/C=C\C/C=C\CCCCC)CCN1CCN(CCN(CCCCCCCCCCCC)CCCCCCCCCCCC)CC1 [Compound 34, N^1-(2-(4-(2-(Didodecylamino)ethyl)piperazin-1-yl)ethyl)-N^1,N^2,N^2-tri((9Z,12Z)-octadeca-9,12-dien-1-yl)ethane-1,2-diamine]	28	159	–	–	–	–	–	–	–	7.77E+06	1.88E+07	2.19E+06	2.79E+06	5.63E+04	1.22E+06	–	–	–	–	–	Size (nm) ([1]; Table 1, * formulated with lipid:DSPC:Chol:PEG-DMG 50:10:38.5:1.5): 66.0 nm; PDI [1, 9]: 0.077; particle size, rank within the named table (in words) [1]: smallest particles; pKa [2, 9]: 5.74; EE (%) [4, 9]: 98.1%

Second part, led by results:

IL-6 (IL-6; Table 4)	IP-10 (IP-10; Table 4)	IP-10 induction, rank or comparison with IL-6 (in words) (IP-10)	PDI [1, 8]	Size (nm) [1, 8] [nm]	pKa [2, 8]	IL-6 (IL-6; Table 20-4, formula (20-I))	IP-10 (IP-10; Table 20-4, formula (20-I))	EE (%) [4, 8] [%]	SMILES	Total Flux 3 hours ([3]; Table 2)	Total Flux 6 hours ([3]; Table 2)	Total Flux 24 hours ([3]; Table 2)	Total Flux Liver ([5]; Table 3, mice)	Total Flux Lung ([5]; Table 3, mice)	Total Flux Spleen ([5]; Table 3, mice, spleen)	Total Flux 3 hours ([3]; Table 20-2)	Total Flux 6 hours ([3]; Table 20-2)	Total Flux 24 hours ([3]; Table 20-2)	Total Flux Liver ([5]; Table 20-3, mice)	Total Flux Lung ([5]; Table 20-3, mice)	also measured
–	–	–	0.141	67.9	6.43	18.4	134.0	96.6	CCCCCCCCCCCCN(CCCCCCCCCCCC)CCN(CCO)CCCCCCCC(=O)OCCCCCCCCC [Compound 20-8, Nonyl 8-((2-(didodecylamino)ethyl)(2-hydroxyethyl)amino)octanoate]	–	–	–	–	–	–	2.76E+09	4.37E+09	1.30E+08	8.09E+08	3.45E+06	particle size, rank within the named table (in words) [1]: smallest particles; Total Flux Femur ([5]; Table 20-3, mice): 1.62E+06; Total Flux Spleen ([5]; Table 20-3, mice, spleen): 2.70E+07
–	–	–	0.110	76.4	6.82	105.8	671.5	95.8	CCCCCCCCCCCCN(CCCCCCCCCCCC)CCN(CCO)CCCCCC(=O)OCCCCC [Compound 20-3, Pentyl 6-((2-(didodecylamino)ethyl)(2-hydroxyethyl)amino)hexanoate]	–	–	–	–	–	–	5.35E+09	3.00E+09	6.49E+07	4.33E+08	6.08E+05	Total Flux Femur ([5]; Table 20-3, mice): 1.73E+06; Total Flux Spleen ([5]; Table 20-3, mice, spleen): 6.35E+06
–	–	highest	0.215	124.0	5.89	311.1	8436.6	94.5	CCCCC/C=C\C/C=C\CCCCCCCCN(CCO)CCN(CCCCCCCC/C=C\C/C=C\CCCCC)CCCCCCCC/C=C\C/C=C\CCCCC [Compound 20-14, 2-((2-(Di((9Z,12Z)-octadeca-9,12-dien-1-yl)amino)ethyl)((9Z,12Z)-octadeca-9,12-dien-1-yl)amino)ethan-1-ol]	–	–	–	–	–	–	1.76E+09	4.07E+08	8.10E+07	5.22E+07	1.08E+05	Total Flux Spleen ([5]; Table 20-3, mice, spleen): 7.03E+05
